pIC50: −log10 of the molar value.
Assays:
KDR(VEGFR2) [1] = molecular target: T1, KDR(VEGFR2) (Homo sapiens, UniProt P35968); assay: KDR enzymatic activity test, FAM-labeled peptide, Caliper; assay type: biochemical; details: FAM-labeled peptide substrate, read-out: Kinase-inhibiting activity IC50 KDR(VEGFR2)
Protocol: (§1) Test samples: Compounds in the present invention (the sequence numbers and structures thereof are shown in Table 1), dilution concentration: 0.03 μM-3 μM, a total of 10 concentration gradients.
(§2) Test method: enzymatic activity tests of Aurora kinase (including Aurora A and Aurora B) and VEGFR2 (KDR) were performed using a multi-function microplate reader.
(§3) a) 96-well plates, 10 dose groups, 3-fold serial dilutions, each well was added with DMSO, maximal concentration of 500 μM (50-fold compound).
(§4) b) 384-well plates, diluted with 1× kinase buffer (50 mM HEPES, pH 7.5; 0.0015% Brij-35; 2 mM DTT), each well containing 5× compound dissolved in 5 μL of 10% DMSO. Each well of the negative control contains 5 μL of 1× kinase buffer containing 10% DMSO.
(§5) Aurora A, Aurora B and KDR were dissolved in 1× kinase buffer and prepared as a 2.5× enzyme solution. After the compound in various concentrations was reacted with 2.5× enzyme solution at room temperature for 10 min, the FAM-labeled peptide substrate and ATP were added to initiate reaction. After incubation for 40 minutes, 25 μL of terminal solution (100 mM HEPES, pH 7.5; 0.015% Brij-35; 0.2% Coating Reagent #3; 50 mM EDTA) was added to stop the reaction, and the final data were read by Caliper.

[2] = system: D4475 breast cancer cells; assay: Cell proliferation, Cell Titer-Glo; assay type: cell-based; details: 72 hours, read-out: Cellular inhibitory activity IC50 D4475
Protocol: (§6) Test method: The effect of compounds on cell proliferation of different cell lines was examined by Cell Titer-Glo method.
(§7) Each cell line was inoculated into a 96-well plate one day in advance, and after overnight incubation, drugs in different concentrations were added to a final concentration of 0-10000 nM, 3-5 folds dilution, for a total of 10 concentration points. After incubation for 72 hours, the mixture was added with Cell titer-Glo reagent equilibrated at room temperature, and shaken to incubation for 10 min, and then allowed to stand at room temperature for 2 min to stabilize the light signal. The multi-function microplate reader was used to read data from each well and analyze it.

KG-1 Leukemic cells = assay: Cell proliferation, Cell Titer-Glo; assay type: cell-based; details: 72 hours, read-out: Cellular inhibitory activity IC50 KG-1
Protocol: as §6, §7

[3] = system: TOV-112D ovarian cancer cells; assay: Cell proliferation, Cell Titer-Glo; assay type: cell-based; details: Homo sapiens, TOV112D, 72 hours, read-out: Cellular inhibitory activity IC50 TOV-112D
Protocol: as §6, §7

[4] = system: A2780 ovarian cancer cells; assay: Cell proliferation, Cell Titer-Glo; assay type: cell-based; details: Homo sapiens, 72 hours, read-out: Cellular inhibitory activity IC50 A2780
Protocol: as §6, §7

A549 Lung cancer cells = assay: Cell proliferation, Cell Titer-Glo; assay type: cell-based; details: Homo sapiens, 72 hours, read-out: Cellular inhibitory activity IC50 A549
Protocol: as §6, §7

[5] = system: OVCAR-3 ovarian cancer cells; assay: Cell proliferation, Cell Titer-Glo; assay type: cell-based; details: Homo sapiens, 72 hours, read-out: Cellular inhibitory activity IC50 OVCAR-3
Protocol: as §6, §7

[6] = system: HCC1954 breast cancer cells; assay: Cell proliferation, Cell Titer-Glo; assay type: cell-based; details: Homo sapiens, 72 hours, read-out: Cellular inhibitory activity IC50 HCC1954
Protocol: as §6, §7

Kasumi-1 Leukemic cells = assay: Cell proliferation, Cell Titer-Glo; assay type: cell-based; details: Homo sapiens, 72 hours, read-out: Cellular inhibitory activity IC50 Kasumi-1
Protocol: as §6, §7

[7] = system: BT-549 breast cancer cells; assay: Cell proliferation, Cell Titer-Glo; assay type: cell-based; details: Homo sapiens, 72 hours, read-out: Cellular inhibitory activity IC50 BT-549
Protocol: as §6, §7

[8] = system: Caov-3 ovarian cancer cells; assay: Cell proliferation, Cell Titer-Glo; assay type: cell-based; details: Homo sapiens, 72 hours, read-out: Cellular inhibitory activity IC50 Caov-3
Protocol: as §6, §7

[9] = system: OVCAR-8 ovarian cancer cells; assay: Cell proliferation, Cell Titer-Glo; assay type: cell-based; details: Homo sapiens, 72 hours, read-out: Cellular inhibitory activity IC50 OVCAR-8
Protocol: as §6, §7

Hep3B liver cancer cells = assay: Cell proliferation, Cell Titer-Glo; assay type: cell-based; details: Homo sapiens, 72 hours, read-out: Cellular inhibitory activity IC50 Hep3B
Protocol: as §6, §7

Aurora A [10] = molecular target: T2, Aurora A (Homo sapiens, UniProt O14965); assay: Aurora A enzymatic activity test, FAM-labeled peptide, Caliper; assay type: biochemical; details: FAM-labeled peptide substrate, read-out: Kinase-inhibiting activity IC50 Aurora A
T2 sequence (O14965 1-403): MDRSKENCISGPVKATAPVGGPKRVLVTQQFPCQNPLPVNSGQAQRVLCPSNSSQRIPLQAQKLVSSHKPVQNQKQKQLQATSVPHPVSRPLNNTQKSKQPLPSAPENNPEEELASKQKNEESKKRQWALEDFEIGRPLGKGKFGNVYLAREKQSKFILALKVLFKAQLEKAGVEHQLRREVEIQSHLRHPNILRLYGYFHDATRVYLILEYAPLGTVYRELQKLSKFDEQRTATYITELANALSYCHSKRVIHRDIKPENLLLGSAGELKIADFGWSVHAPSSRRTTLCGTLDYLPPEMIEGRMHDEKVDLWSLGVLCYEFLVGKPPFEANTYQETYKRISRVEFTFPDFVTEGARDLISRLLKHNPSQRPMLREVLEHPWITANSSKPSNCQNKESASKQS
Protocol: as §1, §2, §3, §4, §5

Aurora B [11] = molecular target: T3, Aurora B (Homo sapiens, UniProt Q96GD4); assay: Aurora B enzymatic activity test, FAM-labeled peptide, Caliper; assay type: biochemical; details: FAM-labeled peptide substrate, read-out: Kinase-inhibiting activity IC50 Aurora B
Protocol: as §1, §2, §3, §4, §5

KDR(VEGFR2) [12] = molecular target: T1, KDR(VEGFR2); assay: KDR kinase activity test, [γ-33P]-ATP filter membrane; assay type: biochemical; details: 40 minutes at room temperature, read-out: Kinase-inhibiting activity IC50 KDR (VEGFR2)
Protocol: (§8) Test samples: compounds 1 to 4 in the present invention (the sequence numbers and structures thereof are shown in Table 1), dilution concentration: 0.03 μM-3 μM, a total of 10 concentration gradients.
as §2
(3) Test for KDR Kinase Activity:
(§9) KDR kinase protein and the compounds were sequentially added to the following reaction system: 8 mM MOPS pH 7.0, 0.2 mM EDTA, 0.33 mg/mL myelin basic protein, 10 mM magnesium acetate and [γ-^33P]-ATP (radioactive activity was approximately 500 cpm/pmol). Then the above reaction system was added with ATP to start the reaction, and incubated at room temperature for 40 minutes. Then the reaction was terminated by adding a 3% phosphoric acid solution. 10 μL was taken out from the reaction system, and then added dropwise to a P30 filtermat filter membrane, washed three times in a 75 mM phosphoric acid solution for 5 minutes, and then washed once with methanol. After the filter was dried, count was performed by a liquid crystal scintillation counter.

Aurora A [13] = molecular target: T2, Aurora A; assay: Aurora A kinase activity test, [γ-33P]-ATP filter membrane; assay type: biochemical; details: 40 minutes at room temperature, read-out: Kinase-inhibiting activity IC50 Aurora A
Protocol: as §8, §2
(1) Test for Aurora a Kinase Activity:
as §9, with “Aurora A kinase protein” for “KDR kinase protein”, “mM EDTA, 200 μM LRRASLG (Kemptide), 10 mM” for “mM EDTA, 0.33 mg/mL myelin basic protein, 10 mM”, “times in 75 mM” for “times in a 75 mM”, “the filter membrane was dried,” for “the filter was dried,”

Aurora B [14] = molecular target: T3, Aurora B; assay: Aurora B kinase activity test, [γ-33P]-ATP filter membrane; assay type: biochemical; details: 40 minutes at room temperature, read-out: Kinase-inhibiting activity IC50 Aurora B
Protocol: as §8, §2
(2) Test for Aurora B Kinase Activity:
as §9, with “Aurora B kinase protein” for “KDR kinase protein”, “mM EDTA, 30 μM […], 10 mM” for “mM EDTA, 0.33 mg/mL myelin basic protein, 10 mM”, “times in 75 mM” for “times in a 75 mM”

[15] = system: MDA-MB-468 breast cancer cells; assay: Cell proliferation, Cell Titer-Glo; assay type: cell-based; details: Homo sapiens, 72 hours, read-out: Cellular inhibitory activity IC50 MDA-MB-468
Protocol: as §6, §7

[16] = system: HCC38 breast cancer cells; assay: Cell proliferation, Cell Titer-Glo; assay type: cell-based; details: Homo sapiens, 72 hours, read-out: Cellular inhibitory activity IC50 HCC38
Protocol: as §6, §7

[17] = system: HCC70 breast cancer cells; assay: Cell proliferation, Cell Titer-Glo; assay type: cell-based; details: Homo sapiens, 72 hours, read-out: Cellular inhibitory activity IC50 HCC70
Protocol: as §6, §7

T1 sequence (P35968 20-1356): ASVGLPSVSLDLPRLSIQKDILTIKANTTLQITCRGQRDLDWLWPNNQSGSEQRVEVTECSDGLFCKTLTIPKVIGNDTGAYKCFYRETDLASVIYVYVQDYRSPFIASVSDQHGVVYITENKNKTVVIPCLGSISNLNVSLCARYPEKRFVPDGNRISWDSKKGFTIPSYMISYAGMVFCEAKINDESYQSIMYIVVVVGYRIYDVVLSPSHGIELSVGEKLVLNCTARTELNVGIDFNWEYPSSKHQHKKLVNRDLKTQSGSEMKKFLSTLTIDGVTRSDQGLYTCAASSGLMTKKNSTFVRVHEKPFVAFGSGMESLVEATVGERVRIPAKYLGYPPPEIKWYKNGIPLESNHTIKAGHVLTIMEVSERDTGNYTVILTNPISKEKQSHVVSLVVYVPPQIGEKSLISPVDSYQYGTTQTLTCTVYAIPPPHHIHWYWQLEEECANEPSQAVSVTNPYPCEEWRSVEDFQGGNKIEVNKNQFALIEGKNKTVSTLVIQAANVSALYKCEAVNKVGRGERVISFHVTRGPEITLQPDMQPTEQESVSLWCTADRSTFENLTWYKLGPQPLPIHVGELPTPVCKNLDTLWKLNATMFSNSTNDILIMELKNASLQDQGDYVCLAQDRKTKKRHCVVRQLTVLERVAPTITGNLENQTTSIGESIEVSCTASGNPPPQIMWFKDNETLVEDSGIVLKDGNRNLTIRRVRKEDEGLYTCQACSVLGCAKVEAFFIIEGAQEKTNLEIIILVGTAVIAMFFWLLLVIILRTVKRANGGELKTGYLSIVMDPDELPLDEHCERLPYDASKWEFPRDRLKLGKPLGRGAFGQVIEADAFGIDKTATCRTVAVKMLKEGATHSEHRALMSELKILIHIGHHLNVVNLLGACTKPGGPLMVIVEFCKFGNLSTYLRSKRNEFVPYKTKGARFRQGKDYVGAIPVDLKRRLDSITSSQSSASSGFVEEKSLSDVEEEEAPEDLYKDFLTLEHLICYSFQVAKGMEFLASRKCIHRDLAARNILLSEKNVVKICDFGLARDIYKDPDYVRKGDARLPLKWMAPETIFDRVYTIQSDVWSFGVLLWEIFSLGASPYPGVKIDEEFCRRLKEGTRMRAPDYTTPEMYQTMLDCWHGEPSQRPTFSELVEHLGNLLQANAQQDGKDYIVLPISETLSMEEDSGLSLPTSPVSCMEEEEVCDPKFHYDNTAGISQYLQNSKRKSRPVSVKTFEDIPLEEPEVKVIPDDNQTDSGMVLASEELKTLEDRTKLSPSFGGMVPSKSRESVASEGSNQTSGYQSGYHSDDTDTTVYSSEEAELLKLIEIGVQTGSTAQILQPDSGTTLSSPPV
T3 sequence (Q96GD4 whole entry): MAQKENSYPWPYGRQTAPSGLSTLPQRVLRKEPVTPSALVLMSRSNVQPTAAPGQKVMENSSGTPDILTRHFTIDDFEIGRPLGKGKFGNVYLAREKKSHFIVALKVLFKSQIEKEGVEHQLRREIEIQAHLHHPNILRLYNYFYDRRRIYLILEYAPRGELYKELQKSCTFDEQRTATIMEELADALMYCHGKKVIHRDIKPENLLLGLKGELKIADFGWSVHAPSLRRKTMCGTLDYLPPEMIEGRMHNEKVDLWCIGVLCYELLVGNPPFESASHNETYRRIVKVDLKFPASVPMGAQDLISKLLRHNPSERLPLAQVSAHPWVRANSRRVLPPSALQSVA

| pIC50 (KDR(VEGFR2) [1]) | pIC50 (KG-1 Leukemic cells) | pIC50 [3] | pIC50 [4] | pIC50 (A549 Lung cancer cells) | pIC50 [5] | pIC50 [6] | pIC50 (Kasumi-1 Leukemic cells) | pIC50 [7] | pIC50 [8] | pIC50 [9] | pIC50 (Hep3B liver cancer cells) | pIC50 (Aurora A [10]) | pIC50 (Aurora B [11]) | Compound | further results |
| --- | --- | --- | --- | --- | --- | --- | --- | --- | --- | --- | --- | --- | --- | --- | --- |
| 8.92 | 8.30 | 6.02 | 7.46 | 6.49 | 6.51 | 6.40 | 7.32 | 6.77 | 6.74 | 6.52 | 7.30 | 9.31 | 8.30 | Cc1[nH]nc2c1N=C(c1ccccc1Cl)c1cnc(N3CCOCC3)cc1N2 [Compound 29, 4-(5-(2-chlorophenyl)-3-methyl-2,10-dihydropyrazolo[4,3-b]pyrido[4,3-e][1,4]diazepin-8-yl)morpholine] | pIC50 [2]: 6.95 |
| 9.04 | 8.30 | 6.19 | 7.47 | – | 6.12 | – | 7.72 | – | 6.84 | 6.36 | 7.17 | 8.92 | 8.15 | Cc1[nH]nc2c1N=C(c1ccccc1Cl)c1cnc(N3CCN(C)CC3)cc1N2 [Compound 22, 5-(2-chlorophenyl)-3-methyl-8-(4-methylpiperazin-1-yl)-2,10-dihydropyrazolo[4,3-b]pyrido[4,3-e][1,4]diazepine] | – |
| 8.64 | 7.35 | – | – | – | – | – | 7.09 | – | – | – | – | 8.89 | 8.12 | Cc1[nH]nc2c1N=C(c1ccccc1Cl)c1cnc(N3CCS(=O)(=O)CC3)cc1N2 [Compound 34] | – |
| – | – | – | – | – | – | – | – | – | – | – | – | – | – | Cc1[nH]nc2c1N=C(c1ccccc1Cl)c1cnc(S(C)(=O)=O)cc1N2 [Compound 1] | pIC50 (KDR(VEGFR2) [12]): 5.78; pIC50 (Aurora A [13]): 7.92; pIC50 (Aurora B [14]): 7.52 |
| 8.07 | – | – | – | 6.24 | 6.58 | 6.14 | 7.10 | 6.29 | 6.58 | 6.21 | – | 8.32 | 7.82 | Cc1[nH]nc2c1N=C(c1ccccc1Cl)c1cnc(CN3CCOCC3)cc1N2 [Compound 35] | pIC50 [15]: 5.99 |
| 8.80 | – | – | – | – | – | 6.27 | – | 6.38 | – | – | – | 8.32 | 8.24 | CCN1CCN(Cc2cc3c(cn2)C(c2ccccc2Cl)=Nc2c(n[nH]c2C)N3)CC1 [Compound 33] | pIC50 [16]: 6.15; pIC50 [17]: 6.06 |
| – | – | – | – | – | – | – | – | – | – | – | – | – | – | Cc1[nH]nc2c1N=C(c1ccccc1Cl)c1cnc(OC3CCOC3)cc1N2 (stereo not shown) [Compound 4] | pIC50 (KDR(VEGFR2) [12]): 5.82; pIC50 (Aurora A [13]): 8.40; pIC50 (Aurora B [14]): 8.52 |
| 8.49 | 6.34 | 5.60 | 6.19 | 5.86 | 6.09 | 6.05 | 6.90 | 6.18 | 6.44 | 6.21 | 6.61 | 8.80 | 8.40 | CCc1cc2c(cn1)C(c1ccccc1Cl)=Nc1c(n[nH]c1C)N2 [Control drug 1-2, reference compound] | pIC50 [2]: 6.35; pIC50 [16]: 5.96; pIC50 [17]: 5.82; pIC50 [15]: 5.86 |

— patent publication US11718620B2, “Method for treating a cancer mediated by abnormality of multi-kinases” (TransThera Sciences (Nanjing), Inc., priority 2016, dated 2023)
